Source: patent publication US11793880B2, “Conjugates of quaternized tubulysin compounds” (Seagen Inc., priority 2015, dated 2023)
Where two headings read alike, the source gives them in different places.

What was measured:
DEL/BVR, MDR + ALCL = tested on: DEL/BVR, MDR + ALCL
Experimental: (§1) In vitro assays. Cells cultured in log-phase growth were seeded for 24 h in 96-well plates containing 150 μL RPMI 1640 supplemented with 20% FBS. Serial dilutions of antibody-drug conjugates in cell culture media were prepared at 4× working concentrations; 50 μL of each dilution was added to the 96-well plates. […] After 96 h, growth inhibition was assessed by CellTiter-Glo® (Promega, Madison, WI) and luminescence was measured on a plate reader.
(§2) In vitro assays—tubulysin ADCs. ADCs were prepared by t Ell reduction of interchain disulfides to reveal 8-conjugatable cysteines/antibody that were alkylated through Michael addition with the maleimide-containing Drug Linker compounds. […] conjugates hearing quaternized tubulysin ethers with and without a PEG12 side-chain were compared to their tubulysin M analogs.
(§3) Several hydrophilic linker constructs incorporating quaternized tubulysin M were prepared and evaluated in vitro; the results are shown in Table 5. The data (IC50 values in ng/mL) indicate that Conjugates prepared from Drug Linker compounds having quaternized tubulysin M linked via a hydrophilic ValGlu dipeptide with (95) or without (91) a PEG12 side chain, or linked via a hydrophilic glucuronide (82) provide ADCs that are equipotent to the ValAla comparator (15).

L540cy, HL = tested on: L540cy, HL
Experimental: as §1, §2, §3

L428, MDR + HL = tested on: L428, MDR + HL
Experimental: as §1, §2, §3

Karpas299, ALCL = assay: In vitro assays - tubulysin ADCs (cAC10, anti-CD30); format: cell-based; conditions: Table 4; cAC10 ADCs DAR 8, 96 h
Experimental: In vitro assays. Cells cultured in log-phase growth were seeded for 24 h in 96-well plates containing 150 μL RPMI 1640 supplemented with 20% FBS. Serial dilutions of antibody-drug conjugates in cell culture media were prepared at 4× working concentrations; 50 μL of each dilution was added to the 96-well plates. Following addition of ADC, cells were incubated with test articles for 4 d at 37° C. After 96 h, growth inhibition was assessed by CellTiter-Glo® (Promega, Madison, WI) and luminescence was measured on a plate reader.

DEL, ALCL = tested on: DEL, ALCL
Experimental: as §1, §2, §3

[1] = tested on: antigen-negative Hep3B hepatocellular carcinoma cells; conditions: Table 5, cAC10 ADCs 8 drugs/mAb, MDPR-Linker-TubM
Experimental: as §1, §3

[2] = tested on: Karpas299, L540cy, L428, DEL, DEL/BVR cell lines; assay: In vitro assays - tubulysin ADCs, statements across the cell line panel; format: cell-based; conditions: for potency relative to the ValAla comparator (15), in words: Table 5, cAC10 ADCs 8 drugs/mAb, quaternized tubulysin M
Experimental: as §1, §2, §3

[3] = Table 4, cAC10 ADCs DAR 8, 96 h
[4] = Table 5, cAC10 ADCs 8 drugs/mAb, MDPR-Linker-TubM

SMILES	IC50, DEL/BVR, MDR + ALCL (DEL/BVR, MDR + ALCL; [3])	IC50, L540cy, HL (L540cy, HL; [3])	IC50, L428, MDR + HL (L428, MDR + HL; [3])	IC50, Karpas299, ALCL (Karpas299, ALCL)	IC50, DEL, ALCL (DEL, ALCL; [3])	IC50, Hep3B CD30- HCC [1]	IC50, DEL/BVR, MDR + ALCL (DEL/BVR, MDR + ALCL; [4])	IC50, DEL, ALCL (DEL, ALCL; [4])	IC50, L540cy, HL (L540cy, HL; [4])	IC50, L428, MDR + HL (L428, MDR + HL; [4])	potency relative to the ValAla comparator (15), in words [2]	conjugate potency, in words ([2]; Table 4, cAC10 conjugates 8 drug/Ab)
CCO[C@H](C[C@H](C(C)C)N(C)C(=O)[C@@H](NC(=O)[C@H]1CCCC[N+]1(C)Cc1ccc(O[C@@H]2O[C@H](C(=O)O)[C@@H](O)[C@H](O)[C@H]2O)c(NC(=O)CCNC(=O)[C@H](CCCCNC(=O)CCOCCOCCOCCOCCOCCOCCOCCOCCOCCOCCOCCOC)NC(=O)[C@H](CN)N2C(=O)C=CC2=O)c1)[C@@H](C)CC)c1nc(C(=O)N[C@@H](Cc2ccccc2)C[C@H](C)C(=O)O)cs1 (stereo partly drawn) [Compound 66]	6 ng/mL	5 ng/mL	6 ng/mL	1 ng/mL								
CC[C@H](C)[C@H](NC(=O)[C@H]1CCCC[N+]1(C)Cc1ccc(O[C@@H]2O[C@H](C(=O)O)[C@@H](O)[C@H](O)[C@H]2O)c(NC(=O)CCNC(=O)[C@H](CCCCNC(=O)CCOCCOCCOCCOCCOCCOCCOCCOCCOCCOCCOCCOC)NC(=O)[C@H](CN)N2C(=O)C=CC2=O)c1)C(=O)N(C)[C@H](C[C@@H](OC(C)=O)c1nc(C(=O)N[C@@H](Cc2ccccc2)C[C@H](C)C(=O)O)cs1)C(C)C (stereo partly drawn) [Compound 99]	2 ng/mL	2 ng/mL	0.5 ng/mL	0.3 ng/mL	1 ng/mL							
CC[C@H](C)[C@H](NC(=O)[C@H]1CCCC[N+]1(C)Cc1ccc(NC(=O)[C@H](CCC(=O)O)NC(=O)[C@@H](NC(=O)[C@H](CN)N2C(=O)C=CC2=O)C(C)C)cc1)C(=O)N(C)[C@H](C[C@@H](OC(C)=O)c1nc(C(=O)N[C@@H](Cc2ccccc2)C[C@H](C)C(=O)O)cs1)C(C)C (stereo partly drawn) [Compound 91, (2R)-2-(((2S,3S)-1-(((1R,3R)-1-acetoxy-1-(4-(((2R,4S)-4-carboxy-1-phenylpentan-2-yl)carbamoyl)thiazol-2-yl)-4-methylpentan-3-yl)(methyl)amino)-3-methyl-1-oxopentan-2-yl)carbamoyl)-1-(4-((S)-2-((S)-2-((S)-3-amino-24 (2,5-dioxo-2,5-dihydro-1H-pyrrol-1-yl)propanamido)-3-methylbutanamido)-4-carboxybutanamido)benzyl)-1-methylpiperidin-1-ium]						>1000 ng/mL	2 ng/mL	0.1 ng/mL	1 ng/mL	0.3 ng/mL	equipotent	
CCCO[C@H](C[C@H](C(C)C)N(C)C(=O)[C@@H](NC(=O)[C@H]1CCCC[N+]1(C)Cc1ccc(O[C@@H]2O[C@H](C(=O)O)[C@@H](O)[C@H](O)[C@H]2O)c(NC(=O)CCNC(=O)[C@H](CCCCNC(=O)CCOCCOCCOCCOCCOCCOCCOCCOCCOCCOCCOCCOC)NC(=O)[C@H](CN)N2C(=O)C=CC2=O)c1)[C@@H](C)CC)c1nc(C(=O)N[C@@H](Cc2ccccc2)C[C@H](C)C(=O)O)cs1 (stereo partly drawn) [Compound 67]	12 ng/mL	10 ng/mL	>1000 ng/mL	4 ng/mL								
CCO[C@H](C[C@H](C(C)C)N(C)C(=O)[C@@H](NC(=O)[C@H]1CCCC[N+]1(C)Cc1ccc(O[C@@H]2O[C@H](C(=O)O)[C@@H](O)[C@H](O)[C@H]2O)c(NC(=O)CCNC(=O)[C@H](CN)N2C(=O)C=CC2=O)c1)[C@@H](C)CC)c1nc(C(=O)N[C@@H](Cc2ccccc2)C[C@H](C)C(=O)O)cs1 (stereo partly drawn) [Compound 57, (2R)-1-(3-(3-((S)-3-amino-2-(2,5-dioxo-2,5-dihydro-1H-pyrrol-1-yl)propanamido)propanamido)-4-(((2S,3R,4S,5S,6S)-6-carboxy-3,4,5-trihydroxytetrahydro-2H-pyran-2-yl)oxy)benzyl)-2-(((2S,3S)-1-(((1R,3R)-1-(4-(((2R,4S)-4-carboxy-1-phenylpentan-2-yl)carbamoyl)thiazol-2-yl)-1-ethoxy-4-methylpentan-3-yl)(methyl)amino)-3-methyl-1-oxopentan-2-yl)carbamoyl)-1-methylpiperidin-1-ium]	5 ng/mL	5 ng/mL	4 ng/mL	1 ng/mL								consistently more potent
CC[C@H](C)[C@H](NC(=O)[C@H]1CCCC[N+]1(C)Cc1ccc(NC(=O)[C@H](C)NC(=O)[C@@H](NC(=O)[C@H](CN)N2C(=O)C=CC2=O)C(C)C)cc1)C(=O)N(C)[C@H](C[C@@H](OC(C)=O)c1nc(C(=O)N[C@@H](Cc2ccccc2)C[C@H](C)C(=O)O)cs1)C(C)C (stereo partly drawn) [Compound 15, (2R)-2-(((2S,3S)-1-(((1R,3R)-1-acetoxy-1-(4-(((2R,4S)-4-carboxy-1-phenylpentan-2-yl)carbamoyl)thiazol-2-yl)-4-methylpentan-3-yl)(methyl)amino)-3-methyl-1-oxopentan-2-yl)carbamoyl)-1-(4-((S)-2-((S)-2-((S)-3-amino-2-(2,5-dioxo-2,5-dihydro-1H-pyrrol-1-yl)propanamido)-3-methylbutanamido)propanamido)benzyl)-1-methylpiperidin-1-ium]						>1000 ng/mL	4 ng/mL	0.3 ng/mL	2 ng/mL	1 ng/mL		
CC[C@H](C)[C@H](NC(=O)[C@H]1CCCC[N+]1(C)Cc1ccc(O[C@@H]2O[C@H](C(=O)O)[C@@H](O)[C@H](O)[C@H]2O)c(NC(=O)CCNC(=O)[C@H](CN)N2C(=O)C=CC2=O)c1)C(=O)N(C)[C@H](C[C@@H](OC)c1nc(C(=O)N[C@@H](Cc2ccccc2)C[C@H](C)C(=O)O)cs1)C(C)C (stereo partly drawn) [Compound 56, (2R)-1-(3-(3-((S)-3-amino-2-(2,5-dioxo-2,5-dihydro-1H-pyrrol-1-yl)propanamido)propanamido)-4-(((2S,3R,4S,5S,6S)-6-carboxy-3,4,5-trihydroxytetrahydro-2H-pyran-2-yl)oxy)benzyl)-2-(((2S,3S)-1-(((1R,3R)-1-(4-(((2R,4S)-4-carboxy-1-phenylpentan-2-yl)carbamoyl)thiazol-2-yl)-1-methoxy-4-methylpentan-3-yl)(methyl)amino)-3-methyl-1-oxopentan-2-yl)carbamoyl)-1-methylpiperidin-1-ium]	20 ng/mL	10 ng/mL	>1000 ng/mL	3 ng/mL								
CC[C@H](C)[C@H](NC(=O)[C@H]1CCCC[N+]1(C)Cc1ccc(O[C@@H]2O[C@H](C(=O)O)[C@@H](O)[C@H](O)[C@H]2O)c(NC(=O)CCNC(=O)[C@H](CN)N2C(=O)C=CC2=O)c1)C(=O)N(C)[C@H](C[C@@H](OC(C)=O)c1nc(C(=O)N[C@@H](Cc2ccccc2)C[C@H](C)C(=O)O)cs1)C(C)C (stereo partly drawn) [Compound 82, (2R)-2-(((2S,3S)-1-(((1R,3R)-1-acetoxy-1-(4-(((2R,4S)-4-carboxy-1-phenylpentan-2-yl)carbamoyl)thiazol-2-yl)-4-methylpentan-3-yl)(methyl)amino)-3-methyl-1-oxopentan-2-yl)carbamoyl)-1-(3-(3-((S)-3-amino-2-(2,5-dioxo-2,5-dihydro-1H-pyrrol-1-yl)propanamido)propanamido)-4-(((2S,3R,4S,5S,6S)-6-carboxy-3,4,5-trihydroxytetrahydro-2H-pyran-2-yl)oxy)benzyl)-1-methylpiperidin-1-ium]	3 ng/mL	4 ng/mL	0.5 ng/mL	0.6 ng/mL		>1000 ng/mL	4 ng/mL	0.3 ng/mL	1 ng/mL	0.4 ng/mL		
CC[C@H](C)[C@H](NC(=O)[C@H]1CCCC[N+]1(C)Cc1ccc(NC(=O)[C@H](CCC(=O)O)NC(=O)[C@@H](NC(=O)[C@H](CCCCNC(=O)CCOCCOCCOCCOCCOCCOCCOCCOCCOCCOCCOCCOC)NC(=O)[C@H](CN)N2C(=O)C=CC2=O)C(C)C)cc1)C(=O)N(C)[C@H](C[C@@H](OC(C)=O)c1nc(C(=O)N[C@@H](Cc2ccccc2)C[C@H](C)C(=O)O)cs1)C(C)C (stereo partly drawn) [Compound 95]						>1000 ng/mL	2 ng/mL	0.1 ng/mL	0.8 ng/mL	0.2 ng/mL	equipotent	
